From the NIST ThermoML archive (doi:10.1021/acs.jced.8b00201)
± gives the expanded uncertainty stated by the source.

Assay: xn = mol fraction of the nth substance listed
Details: 100 kPa, Liquid; for viscosity: Concentric cylinders viscometry; for mass density: Vibrating tube method

CCCCCCCO [heptan-1-ol] + O=C1CCCCC1
Details | mass density [kg/m3] | viscosity [mPa·s]
293.15 K, x2 = 0 | 822.2 ± 20 | 7.03 ± 0.35
293.15 K, x2 = 0.0809 | 829.7 ± 20 | 6.06 ± 0.31
293.15 K, x2 = 0.1601 | 837.3 ± 20 | 5.23 ± 0.26
293.15 K, x2 = 0.2406 | 845.4 ± 20 | 4.49 ± 0.23
293.15 K, x2 = 0.3511 | 857.4 ± 20 | 3.68 ± 0.19
293.15 K, x2 = 0.4227 | 865.6 ± 20 | 3.27 ± 0.16
293.15 K, x2 = 0.5754 | 884.4 ± 20 | 2.71 ± 0.14
293.15 K, x2 = 0.6492 | 894.2 ± 20 | 2.59 ± 0.13
293.15 K, x2 = 0.7422 | 907.3 ± 20 | 2.46 ± 0.12
293.15 K, x2 = 0.8513 | 923.9 ± 20 | 2.38 ± 0.12
293.15 K, x2 = 0.9385 | 938.2 ± 20 | 2.35 ± 0.12
298.15 K, x2 = 0 | 818.7 ± 20 | 5.92 ± 0.3
298.15 K, x2 = 0.0809 | 826 ± 20 | 5.15 ± 0.26
298.15 K, x2 = 0.1601 | 833.5 ± 20 | 4.46 ± 0.22
298.15 K, x2 = 0.2406 | 841.4 ± 20 | 3.89 ± 0.2
298.15 K, x2 = 0.3511 | 853.1 ± 20 | 3.22 ± 0.16
298.15 K, x2 = 0.4227 | 861.2 ± 20 | 2.83 ± 0.14
298.15 K, x2 = 0.5754 | 879.6 ± 20 | 2.39 ± 0.12
298.15 K, x2 = 0.6492 | 889.3 ± 20 | 2.29 ± 0.12
298.15 K, x2 = 0.7422 | 902.2 ± 20 | 2.19 ± 0.11
298.15 K, x2 = 0.8513 | 918.5 ± 20 | 2.12 ± 0.11
298.15 K, x2 = 0.9385 | 932.6 ± 20 | 2.09 ± 0.11
303.15 K, x2 = 0 | 815.2 ± 20 | 5.03 ± 0.25
303.15 K, x2 = 0.0809 | 822.3 ± 20 | 4.41 ± 0.22
303.15 K, x2 = 0.1601 | 829.7 ± 20 | 3.86 ± 0.19
303.15 K, x2 = 0.2406 | 837.5 ± 20 | 3.37 ± 0.17
303.15 K, x2 = 0.3511 | 849 ± 20 | 2.82 ± 0.14
303.15 K, x2 = 0.4227 | 857 ± 20 | 2.51 ± 0.13
303.15 K, x2 = 0.5754 | 875.2 ± 20 | 2.11 ± 0.11
303.15 K, x2 = 0.6492 | 884.8 ± 20 | 2.04 ± 0.1
303.15 K, x2 = 0.7422 | 897.6 ± 20 | 1.97 ± 0.1
303.15 K, x2 = 0.8513 | 913.8 ± 20 | 1.94 ± 0.1
303.15 K, x2 = 0.9385 | 927.7 ± 20 | 1.93 ± 0.1
308.15 K, x2 = 0 | 811.6 ± 20 | 4.3 ± 0.22
308.15 K, x2 = 0.0809 | 818.7 ± 20 | 3.78 ± 0.19
308.15 K, x2 = 0.1601 | 825.9 ± 20 | 3.32 ± 0.17
308.15 K, x2 = 0.2406 | 833.6 ± 20 | 2.93 ± 0.15
308.15 K, x2 = 0.3511 | 845 ± 20 | 2.49 ± 0.13
308.15 K, x2 = 0.4227 | 852.8 ± 20 | 2.26 ± 0.11
308.15 K, x2 = 0.5754 | 870.9 ± 20 | 1.93 ± 0.1
308.15 K, x2 = 0.6492 | 880.4 ± 20 | 1.85 ± 0.09
308.15 K, x2 = 0.7422 | 893.1 ± 20 | 1.78 ± 0.09
308.15 K, x2 = 0.8513 | 909.2 ± 20 | 1.75 ± 0.09
308.15 K, x2 = 0.9385 | 923.1 ± 20 | 1.76 ± 0.09
313.15 K, x2 = 0 | 808 ± 20 | 3.71 ± 0.19
313.15 K, x2 = 0.0809 | 814.9 ± 20 | 3.24 ± 0.16
313.15 K, x2 = 0.1601 | 822.1 ± 20 | 2.86 ± 0.14
313.15 K, x2 = 0.2406 | 829.7 ± 20 | 2.54 ± 0.13
313.15 K, x2 = 0.3511 | 840.9 ± 20 | 2.19 ± 0.11
313.15 K, x2 = 0.4227 | 848.7 ± 20 | 2.03 ± 0.1
313.15 K, x2 = 0.5754 | 866.6 ± 20 | 1.77 ± 0.09
313.15 K, x2 = 0.6492 | 876 ± 20 | 1.72 ± 0.09
313.15 K, x2 = 0.7422 | 888.6 ± 20 | 1.65 ± 0.08
313.15 K, x2 = 0.8513 | 904.5 ± 20 | 1.62 ± 0.08
313.15 K, x2 = 0.9385 | 918.4 ± 20 | 1.6 ± 0.08
318.15 K, x2 = 0 | 804.4 ± 20 | 3.21 ± 0.16
318.15 K, x2 = 0.0809 | 811.2 ± 20 | 2.83 ± 0.14
318.15 K, x2 = 0.1601 | 818.3 ± 20 | 2.5 ± 0.13
318.15 K, x2 = 0.2406 | 825.8 ± 20 | 2.23 ± 0.11
318.15 K, x2 = 0.3511 | 836.9 ± 20 | 1.95 ± 0.1
318.15 K, x2 = 0.4227 | 844.6 ± 20 | 1.82 ± 0.09
318.15 K, x2 = 0.5754 | 862.3 ± 20 | 1.61 ± 0.08
318.15 K, x2 = 0.6492 | 871.7 ± 20 | 1.57 ± 0.08
318.15 K, x2 = 0.7422 | 884.2 ± 20 | 1.51 ± 0.08
318.15 K, x2 = 0.8513 | 900.2 ± 20 | 1.49 ± 0.08
318.15 K, x2 = 0.9385 | 914.1 ± 20 | 1.47 ± 0.07
323.15 K, x2 = 0 | 800.7 ± 20 | 2.79 ± 0.14
323.15 K, x2 = 0.0809 | 807.5 ± 20 | 2.49 ± 0.13
323.15 K, x2 = 0.1601 | 814.5 ± 20 | 2.23 ± 0.11
323.15 K, x2 = 0.2406 | 821.9 ± 20 | 2.01 ± 0.1
323.15 K, x2 = 0.3511 | 833 ± 20 | 1.77 ± 0.09
323.15 K, x2 = 0.4227 | 840.7 ± 20 | 1.64 ± 0.08
323.15 K, x2 = 0.5754 | 858.4 ± 20 | 1.45 ± 0.07
323.15 K, x2 = 0.6492 | 867.7 ± 20 | 1.4 ± 0.07
323.15 K, x2 = 0.7422 | 880.3 ± 20 | 1.35 ± 0.07
323.15 K, x2 = 0.8513 | 896.4 ± 20 | 1.33 ± 0.07
323.15 K, x2 = 0.9385 | 910.2 ± 20 | 1.33 ± 0.07
